The source of these data is patent publication US8703768B2, “Nitrogen containing heteroaryl compounds” (Hoffmann-La Roche Inc., priority 2010, dated 2014).

The target of this assay is human PDE10A (Homo sapiens (Human), UniProt Q9Y233). The assay is described as follows: human PDE10A full length Scintillation Proximity Assay (SPA). The conditions noted are these: 50 nM cGMP and 50 nM [3H]-cGMP, 20 minutes at room temperature; read-out: PDE10A inhibition IC50. Type of assay: biochemical. In short, it runs like this: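 Radiometric SPA read-out: after 20 min at room temperature with [^3H]-cGMP/cGMP substrate, zinc sulphate (18 mM) bead stop reagent added and counts read after 1 h. Non-specific signal defined without enzyme; full-length protein used.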
A general note: In a scintillation proximity assay essentially only radioactivity close to the scintillant gives light.

By IC50 is commonly meant the concentration at which inhibition is half-maximal.

human PDE10A, sequence (Q9Y233 other isoform, or with tags, fused parts or gaps): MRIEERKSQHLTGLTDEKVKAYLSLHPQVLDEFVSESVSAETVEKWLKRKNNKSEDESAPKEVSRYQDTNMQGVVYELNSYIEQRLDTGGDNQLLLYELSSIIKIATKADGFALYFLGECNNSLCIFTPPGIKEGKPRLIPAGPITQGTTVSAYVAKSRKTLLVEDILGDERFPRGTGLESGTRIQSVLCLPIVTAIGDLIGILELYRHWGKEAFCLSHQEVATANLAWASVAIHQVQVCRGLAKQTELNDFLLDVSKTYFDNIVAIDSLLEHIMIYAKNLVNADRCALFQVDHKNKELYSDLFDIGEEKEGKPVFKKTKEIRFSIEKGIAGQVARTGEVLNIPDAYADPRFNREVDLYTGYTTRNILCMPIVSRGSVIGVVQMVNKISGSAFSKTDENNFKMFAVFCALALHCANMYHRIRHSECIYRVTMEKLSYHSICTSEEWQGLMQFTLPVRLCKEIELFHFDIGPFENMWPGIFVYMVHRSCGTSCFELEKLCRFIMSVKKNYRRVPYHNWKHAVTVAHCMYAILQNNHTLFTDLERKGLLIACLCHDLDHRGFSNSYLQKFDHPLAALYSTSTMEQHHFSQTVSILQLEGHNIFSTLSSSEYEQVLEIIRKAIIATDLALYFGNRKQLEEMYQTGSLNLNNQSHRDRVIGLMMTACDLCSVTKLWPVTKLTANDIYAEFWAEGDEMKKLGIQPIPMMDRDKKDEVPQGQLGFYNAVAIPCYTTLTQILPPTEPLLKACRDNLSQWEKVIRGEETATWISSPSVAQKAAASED

On to `CN(C)C(=O)c1nc(C2CC2)ccc1NC(=O)c1nc(C2CC2)cnc1Nc1cncnc1` [Example 265, 6-Cyclopropyl-3-(pyrimidin-5-ylamino)-pyrazine-2-carboxylic acid (6-cyclopropyl-2-dimethylcarbamoyl-pyridin-3-yl)-amide], for which the half-inhibitory concentration (IC50) came to 20.6 nM.

Regarding `Cn1cc(NC(=O)c2nc(C3CC3)ccc2Nc2cncnc2)c(C(=O)N2CCOCC2)n1` [Example 14, 6-Cyclopropyl-3-(pyrimidin-5-ylamino)-pyridine-2-carboxylic acid [1-methyl-3-(morpholine-4-carbonyl)-1H-pyrazol-4-yl]-amide], the IC50 was found to be 11.4 nM. The same measure for `Cn1ncc(NC(=O)c2nc(C3CC3)cnc2Nc2cncnc2)c1C(=O)NCC(F)(F)F` [Example 144, 6-Cyclopropyl-3-(pyrimidin-5-ylamino)-pyrazine-2-carboxylic acid [1-methyl-5-(2,2,2-trifluoro-ethylcarbamoyl)-1H-pyrazol-4-yl]-amide]: 2.1 nM; for `COCC(C)NC(=O)c1nn(C)cc1NC(=O)c1nc(C2CC2)ccc1Nc1cncnc1` (centres unmarked) [Example 41, 6-Cyclopropyl-3-(pyrimidin-5-ylamino)-pyridine-2-carboxylic acid [3-(2-methoxy-1-methyl-ethylcarbamoyl)-1-methyl-1H-pyrazol-4-yl]-amide]: 6.9 nM; for `CCNC(=O)c1c(NC(=O)c2nc(C3CC3)cnc2Nc2cncnc2)sc2c1CCCC2` [Example 185, 6-Cyclopropyl-3-(pyrimidin-5-ylamino)-pyrazine-2-carboxylic acid (3-ethylcarbamoyl-4,5,6,7-tetrahydro-benzo[b]thiophen-2-yl)-amide]: 2690 nM. In the case of `CNC(=O)c1cc(OC)ccc1NC(=O)c1nc(C2CC2)cnc1Nc1cncnc1` [Example 225, 6-Cyclopropyl-3-(pyrimidin-5-ylamino)-pyrazine-2-carboxylic acid (4-methoxy-2-methylcarbamoyl-phenyl)-amide], the IC50 was found to be 0.5 nM. The figure for `O=C(NC1CC1)c1ccncc1NC(=O)c1nc(C2CC2)ccc1Nc1cncnc1` [Example 57, 6-Cyclopropyl-3-(pyrimidin-5-ylamino)-pyridine-2-carboxylic acid (4-cyclopropylcarbamoyl-pyridin-3-yl)-amide] is 2.1 nM. The figure for `COC(C)(C)CNC(=O)c1ccncc1NC(=O)c1nc(C2CC2)cnc1Nc1cncnc1` [Example 113, 6-Cyclopropyl-3-(pyrimidin-5-ylamino)-pyrazine-2-carboxylic acid [4-(2-methoxy-2-methyl-propylcarbamoyl)-pyridin-3-yl]-amide] is 1.6 nM. As to `CCN(C)C(=O)c1ncncc1NC(=O)c1nc(C2CC2)cnc1Nc1cncnc1` [Example 204, 5-{[6-Cyclopropyl-3-(pyrimidin-5-ylamino)-pyrazine-2-carbonyl]-amino}-pyrimidine-4-carboxylic acid ethyl-methyl-amide], the concentration for half-maximal inhibition (IC50) is 52.5 nM. The same measure for `CC(C)CNC(=O)c1c(NC(=O)c2nc(C3CC3)cnc2Nc2cncnc2)cnn1C` [Example 167, 6-Cyclopropyl-3-(pyrimidin-5-ylamino)-pyrazine-2-carboxylic acid (5-isobutylcarbamoyl-1-methyl-1H-pyrazol-4-yl)-amide]: 4.4 nM; for `CNC(=O)c1c(NC(=O)c2nc(C3CC3)cnc2Nc2cncnc2)cccc1OC` [Example 192, 6-Cyclopropyl-3-(pyrimidin-5-ylamino)-pyrazine-2-carboxylic acid (3-methoxy-2-methylcarbamoyl-phenyl)-amide]: 3.1 nM; for `CCn1ncc(NC(=O)c2nc(C3CC3)cnc2Nc2cncnc2)c1C(=O)NCC(C)C` [Example 202, 6-Cyclopropyl-3-(pyrimidin-5-ylamino)-pyrazine-2-carboxylic acid (1-ethyl-5-isobutylcarbamoyl-1H-pyrazol-4-yl)-amide]: 3.8 nM. The same measure for `Cn1cc(NC(=O)c2nc(C3CC3)ccc2Nc2cncnc2)c(C(=O)N2CCCC2CO)n1` (centres unmarked) [Example 49, 6-Cyclopropyl-3-(pyrimidin-5-ylamino)-pyridine-2-carboxylic acid [3-(2-hydroxymethyl-pyrrolidine-1-carbonyl)-1-methyl-1H-pyrazol-4-yl]-amide]: 3.9 nM; for `CC(C)NC(=O)c1ncccc1NC(=O)c1nc(C2CC2)cnc1Nc1cncnc1` [Example 221, 6-Cyclopropyl-3-(pyrimidin-5-ylamino)-pyrazine-2-carboxylic acid (2-isopropylcarbamoyl-pyridin-3-yl)-amide]: 4.9 nM. The figure for `CNC(=O)c1nn(C)cc1NC(=O)c1nc(C2CCCO2)cnc1Nc1cncnc1` (centres unmarked) [Example 96, 3-(Pyrimidin-5-ylamino)-6-(tetrahydro-furan-2-yl)-pyrazine-2-carboxylic acid (1-methyl-3-methylcarbamoyl-1H-pyrazol-4-yl)-amide] is 96 nM; for `CC(C)(CO)NC(=O)c1ccncc1NC(=O)c1nc(C2CC2)cnc1Nc1cncnc1` [Example 125, 6-Cyclopropyl-3-(pyrimidin-5-ylamino)-pyrazine-2-carboxylic acid [4-(2-hydroxy-1,1-dimethyl-ethylcarbamoyl)-pyridin-3-yl]-amide] it is 5.6 nM.

`CN(CCCO)C(=O)c1ccncc1NC(=O)c1nc(C2CC2)ccc1Nc1cncnc1` [Example 71, 6-Cyclopropyl-3-(pyrimidin-5-ylamino)-pyridine-2-carboxylic acid {4-[(3-hydroxy-propyl)-methyl-carbamoyl]-pyridin-3-yl}-amide]: the half-maximal inhibitory concentration (IC50) amounted to 56.4 nM. The same measure for `CNC(=O)c1c(NC(=O)c2nc(C(C)C)ncc2Nc2ccc(F)cc2)cnn1C` [Example 191, 5-(4-Fluoro-phenylamino)-2-isopropyl-pyrimidine-4-carboxylic acid (1-methyl-5-methylcarbamoyl-1H-pyrazol-4-yl)-amide]: 470 nM; for `CCc1ccc(NC(=O)c2nc(C3CC3)cnc2Nc2cncnc2)c(C(=O)NC)n1` [Example 180, 6-Cyclopropyl-3-(pyrimidin-5-ylamino)-pyrazine-2-carboxylic acid (6-ethyl-2-methylcarbamoyl-pyridin-3-yl)-amide]: 5.5 nM; for `CC(C)c1ncc(Nc2cncnc2)c(C(=O)Nc2cnccc2C(=O)NCC(C)(C)O)n1` [Example 92, 2-Isopropyl-5-(pyrimidin-5-ylamino)-pyrimidine-4-carboxylic acid [4-(2-hydroxy-2-methyl-propylcarbamoyl)-pyridin-3-yl]-amide]: 6.4 nM. As to `CNC(=O)c1c(NC(=O)c2nc([C@H]3CCOC3)cnc2Nc2cncnc2)cnn1C` [Example 266, 3-(Pyrimidin-5-ylamino)-6-(R)-tetrahydro-furan-3-yl-pyrazine-2-carboxylic acid (1-methyl-5-methylcarbamoyl-1H-pyrazol-4-yl)-amide], the IC50 was 12 nM. On to `CN(C(=O)c1nn(C)cc1NC(=O)c1nc(C2CC2)ccc1Nc1cncnc1)C1CCCC1` [Example 19, 6-Cyclopropyl-3-(pyrimidin-5-ylamino)-pyridine-2-carboxylic acid [3-(cyclopentyl-methyl-carbamoyl)-1-methyl-1H-pyrazol-4-yl]-amide], for which the half-maximal inhibitory concentration (IC50) was 8.7 nM. The figure for `CNC(=O)c1c(NC(=O)c2nc(C(C)=O)cnc2Nc2cncnc2)cnn1C` [Example 184, 6-Acetyl-3-(pyrimidin-5-ylamino)-pyrazine-2-carboxylic acid (1-methyl-5-methylcarbamoyl-1H-pyrazol-4-yl)-amide] is 162 nM.
